One experiment deals with p38 MAPKα (Homo sapiens (Human), UniProt Q16539). Briefly: p38 MAPKα enzyme inhibition (FRET, Z-LYTE), Method 2. It counts as biochemical.
The next experiment concerns the target c-Src (Homo sapiens (Human), UniProt P12931). Briefly: c-Src enzyme inhibition (FRET, Z-LYTE). It counts as biochemical. As to the method:
(§1) The enzyme inhibitory activities of compounds disclosed herein are determined by FRET using synthetic peptides labelled with both donor and acceptor fluorophores (Z-LYTE, Invitrogen Ltd., Paisley, UK).
(§2) The relevant enzyme (3000 ng/mL or 2000 ng/mL respectively, 2.5 μL) is incubated with the test compound (either 4 μg/mL, 0.4 μg/mL, 0.04 μg/mL, or 0.004 μg/mL, 2.5 μL each) for 2 hr at RT. The FRET peptides (8 μM, 2.5 μL), and appropriate ATP solutions (2.5 μL, 800 μM for c-Src, and 60 μM ATP for Syk) are then added to the enzymes/compound mixtures and incubated for 1 hr. Development reagent (protease, 5 μL) is added for 1 hr prior to detection in a fluorescence microplate reader (Varioskan® Flash, ThermoFisher Scientific).
(§3) In all cases, the site-specific protease cleaves non-phosphorylated peptide only and eliminates the FRET signal. Phosphorylation levels of each reaction are calculated using the ratio of coumarin emission (donor) over fluorescein emission (acceptor), for which high ratios indicate high phosphorylation and low ratios indicate low phosphorylation levels.

The target of a further experiment is Syk (Homo sapiens (Human), UniProt P43405). Briefly: Syk enzyme inhibition (FRET, Z-LYTE). It counts as biochemical. As to the method: as §1
as §2, with “The inhibitory activities of compounds of the invention against c-Src and Syk enzymes (Invitrogen), are evaluated in a similar fashion to that described hereinabove. The relevant” for “The relevant”
as §3

In the next experiment the target is GSK3α (Homo sapiens (Human), UniProt P49840). Briefly: GSK 3α enzyme inhibition (FRET, Z-LYTE), Method 2. It counts as biochemical. As to the method:
as §1
The inhibitory activities of compounds of the invention against the GSK 3α enzyme isoform (Invitrogen), are evaluated by determining the level of activation/phosphorylation of the target peptide. The GSK3-α protein (500 ng/mL, 2.5 μL) is mixed with the test compound (2.5 μL at either 4 μg/mL, 0.4 μg/mL, 0.04 μg/mL, or 0.004 μg/mL) for 2 hr at RT. The FRET peptide (8 μM, 2.5 μL), which is a phosphorylation target for GSK3α, and ATP (40 μM, 2.5 μL) are then added to the enzyme/compound mixture and the resulting mixture incubated for 1 hr. Development reagent (protease, 5 μL) is added for 1 hr prior to detection in a fluorescence microplate reader (Varioskan® Flash, ThermoFisher Scientific).
as §3
This method follows the same steps as Method 1 above, but utilises a shorter period of mixing of the test compound (105 minutes instead of 2 hours) with the GSK3-α protein.

Experiment [1] relates to PBMCs. Briefly: LPS-induced TNFα/IL-8 release in PBMC cells, assay (b). As to conditions: Homo sapiens, LPS-stimulated PBMCs, read-out: IC50 Values for Inhibition of Cytokine Release, PBMCs IL-8. It counts as cell-based. As for the experimental part: Peripheral blood mononuclear cells (PBMCs) from healthy subjects are separated from whole blood using a density gradient (Lymphoprep, Axis-Shield Healthcare). The PBMCs are seeded in 96 well plates and treated with compounds at the desired concentration for 2 hours before addition of 1 ng/mL LPS (Escherichia Coli 0111:B4 from Sigma Aldrich) for 24 hours under normal tissue culture conditions (37° C., 5% CO2). The supernatant is harvested for determination of IL-8 and TNFα concentrations by sandwich ELISA (Duo-set, R&D systems) and read on the fluorescence microplate reader (Varioskan® Flash, ThermoFisher Scientific).

For experiment [2], the system named is PBMCs. The experiment can be described thus: IL-2 and IFN gamma release in CD3/CD28 stimulated PBMC cells, assay (c). The format is cell-based. The conditions noted are these: Homo sapiens, IFNγ, read-out: IC50 Values for Inhibition of Cytokine Release, PBMCs IFNγ. As to the method: PBMCs from healthy subjects are separated from whole blood using a density gradient (Lymphoprep, Axis-Shield Healthcare). Cells are added to a 96 well plate pre-coated with a mixture of CD3/CD28 monoclonal antibodies (0.3 μg/mL eBioscience and 3 μg/mL BD Pharmingen respectively). Compound at the desired concentration is then added to the wells and the plate left for 3 days under normal tissue culture conditions. Supernatants are harvested and IL-2 and IFN gamma release determined by Sandwich ELISA (Duo-set, R&D System). The IC50 is determined from the dose response curve.

In a further experiment the test system is d-U937 cells. The experiment can be described thus: Accumulation of β catenin in d-U937 cells, assay (m). It counts as cell-based, human. As to the method: U937 cells, a human monocytic cell line, are differentiated into macrophage-type cells by incubation with PMA; (100 ng/mL) for between 48 to 72 hr. The cells are then incubated with either final concentrations of test compound or vehicle for 18 hr. The induction of β-catenin by the test compounds is stopped by replacing the media with 4% formaldehyde solution. Endogenous peroxide activity is neutralised by incubating with quenching buffer (100 μL, 0.1% sodium azide, 1% H2O2 in PBS with 0.05% Tween-20) for 20 min. The cells are washed with washing buffer (200 μL; PBS containing 0.05% Tween-20) and incubated with blocking solution (200 μL; 5% milk in PBS) for 1 hr, re-washed with washing buffer (200 μL) and then incubated overnight with anti-β-catenin antibody solution (50 μL) in 1% BSA/PBS (BD, Oxford, UK).
After washing with washing buffer (3×200 μL; PBS containing 0.05% Tween-20), cells are incubated with an HRP-conjugated secondary antibody solution (100 μL) in 1% BSA/PBS (Dako, Cambridge, UK) and the resultant signal is determined colourimetrically (OD: 450 nm with a reference wavelength of 655 nm) using TMB substrate (50 μL; R&D Systems, Abingdon, UK). This reaction is stopped by addition of 1N H2SO4 solution (50 μL). Cells are then washed with washing buffer and 2% crystal violet solution (50 μL) is applied for 30 min. After washing with washing buffer (3×200 μL), 1% SDS (100 μL) is added to each well and the plates are shaken lightly for 1 hr prior to measuring the absorbance at 595 nm (Varioskan® Flash, Thermo-Fisher Scientific).
The measured OD450-655 readings are corrected for cell number by dividing the OD450-655 by the OD595 readings. The percentage induction for each well is calculated relative to vehicle, and the ratio of induction normalised in comparison with the induction produced by a standard control comprising of N-(4-(4-(3-(3-tert-butyl-1-p-tolyl-1H-pyrazol-5-yl)ureido)naphthalen-1-yloxy)pyridin-2-yl)-2-methoxyacetamide (1 μg/mL) which is defined as 100%.

For another experiment, the system named is HT29 cells. The experiment can be described thus: IL-1β-induced IL-8 release in HT29 cells, assay (d). The conditions noted are these: Homo sapiens, HT-29, IL-1β-stimulated HT29 cells, read-out: IC50 Values for Inhibition of Cytokine Release, HT29 cells IL-8. It counts as cell-based. As to the method:
HT29 cells, a human colon adenocarcinoma cell line, are plated in a 96 well plate (24 hrs) and pre-treated with compounds at the desired concentration for 2 hours before addition of 5 ng/mL of IL-1β (Abcam) for 24 hours. Supernatants are harvested for IL-8 quantification by Sandwich ELISA (Duo-set, R&D System). The IC50 is determined from the dose response curve.

The mark [3] stands for this setting: 1 μg/mL test compound, normalised to reference N-(4-(4-(3-(3-tert-butyl-1-p-tolyl-1H-pyrazol-5-yl)ureido)naphthalen-1-yloxy)pyridin-2-yl)-2-methoxyacetamide.
Setting [4] is: 5 μg/mL test compound, normalised to the same reference compound.
Where [5] appears, read: 10 μg/mL test compound, normalised to the same reference compound.

The values below come from US9771353B2, “Kinase inhibitors based upon N-alkyl pyrazoles” (RESPIVERT LIMITED, priority 2013, dated 2017).

Sequence of c-Src (P12931 whole entry, looked up): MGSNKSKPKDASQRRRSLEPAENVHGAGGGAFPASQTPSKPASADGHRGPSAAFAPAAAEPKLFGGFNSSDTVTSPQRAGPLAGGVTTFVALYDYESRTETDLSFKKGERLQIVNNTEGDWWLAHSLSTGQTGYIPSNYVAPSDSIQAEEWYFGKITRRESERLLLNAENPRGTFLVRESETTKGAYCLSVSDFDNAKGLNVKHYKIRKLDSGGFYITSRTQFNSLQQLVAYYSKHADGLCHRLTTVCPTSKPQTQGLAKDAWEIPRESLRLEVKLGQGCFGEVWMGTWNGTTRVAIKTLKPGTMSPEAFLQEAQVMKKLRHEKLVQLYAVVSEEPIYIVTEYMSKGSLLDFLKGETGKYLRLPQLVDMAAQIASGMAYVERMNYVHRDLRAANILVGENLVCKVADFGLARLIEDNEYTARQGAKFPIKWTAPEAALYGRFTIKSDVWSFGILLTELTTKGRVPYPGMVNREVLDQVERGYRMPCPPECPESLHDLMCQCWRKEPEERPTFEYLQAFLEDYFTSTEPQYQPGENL
Sequence of GSK3α (P49840 whole entry): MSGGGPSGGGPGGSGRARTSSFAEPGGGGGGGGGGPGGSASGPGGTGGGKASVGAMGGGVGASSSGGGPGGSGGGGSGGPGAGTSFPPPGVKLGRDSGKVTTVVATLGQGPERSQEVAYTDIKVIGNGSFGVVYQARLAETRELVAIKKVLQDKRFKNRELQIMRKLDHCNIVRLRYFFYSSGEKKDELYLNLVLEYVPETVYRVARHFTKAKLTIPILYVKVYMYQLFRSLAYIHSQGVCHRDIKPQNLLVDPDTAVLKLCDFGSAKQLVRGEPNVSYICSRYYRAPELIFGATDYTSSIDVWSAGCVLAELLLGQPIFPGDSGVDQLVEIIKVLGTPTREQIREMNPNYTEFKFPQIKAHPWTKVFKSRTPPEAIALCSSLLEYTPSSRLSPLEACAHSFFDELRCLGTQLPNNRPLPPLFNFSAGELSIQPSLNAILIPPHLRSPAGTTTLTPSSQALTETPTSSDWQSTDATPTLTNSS
Sequence of p38 MAPKα (Q16539 whole entry): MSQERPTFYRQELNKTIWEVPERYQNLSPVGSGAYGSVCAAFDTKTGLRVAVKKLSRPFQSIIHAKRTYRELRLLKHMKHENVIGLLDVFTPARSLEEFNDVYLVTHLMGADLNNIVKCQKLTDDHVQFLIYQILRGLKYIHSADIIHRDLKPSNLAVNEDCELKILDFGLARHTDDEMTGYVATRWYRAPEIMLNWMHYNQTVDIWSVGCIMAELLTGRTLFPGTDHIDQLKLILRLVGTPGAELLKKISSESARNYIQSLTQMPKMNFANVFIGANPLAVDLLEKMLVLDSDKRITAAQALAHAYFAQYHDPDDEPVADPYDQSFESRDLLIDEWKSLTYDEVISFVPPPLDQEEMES

One may read the IC50 as the concentration that gives 50% inhibition. As for `C#Cc1cc(Nc2nccc(Oc3ccc(NC(=O)Nc4cc(C(C)(C)C)nn4C)c4ccccc34)n2)cc(C(=O)NCCOCCOCCOC)c1` [Example 7, 3-((4-((4-(3-(3-(tert-Butyl)-1-methyl-1H-pyrazol-5-yl)ureido)naphthalen-1-yl)oxy)pyrimidin-2-yl)amino)-5-ethynyl-N-(2-(2-(2-methoxyethoxy)ethoxy)ethyl)benzamide], the IC50 is 11 nM against p38 MAPKα; 5 nM against c-Src; greater than 1000 nM against Syk; 1850 nM against GSK3α; 2.2 nM in the experiment with PBMCs [1]; 11.8 nM in the experiment with PBMCs [2]. Further, the “% β-catenin induction” value with d-U937 cells (setting [3]) was found to be 1.5%; with d-U937 cells (setting [4]), 6%; in the experiment with d-U937 cells (setting [5]), 9.5%.
With `C#Cc1cc(Nc2nccc(Oc3ccc(NC(=O)Nc4cc(C(C)(C)C)nn4CC)c4ccccc34)n2)cc(C(=O)NCCOCCOCCOC)c1` [Example 8, 3-((4-((4-(3-(3-(tert-Butyl)-1-ethyl-1H-pyrazol-5-yl)ureido)naphthalen-1-yl)oxy)pyrimidin-2-yl)amino)-5-ethynyl-N-(2-(2-(2-methoxyethoxy)ethoxy)ethyl)benzamide], the IC50 against p38 MAPKα was 20 nM; on c-Src it was 5 nM; at Syk it was greater than 1000 nM; against GSK3α, 3070 nM; in the experiment with PBMCs [1], 4.8 nM; in the experiment on PBMCs [2] it was 13.2 nM. The “% β-catenin induction” value was determined as 2.5% in the experiment on d-U937 cells (setting [3]), 4% in the experiment with d-U937 cells (setting [4]) and 3.5% in the experiment on d-U937 cells (setting [5]).
Regarding `C#Cc1cc(Nc2cc(Oc3ccc(NC(=O)Nc4cc(C(C)(C)C)nn4C)c4ccccc34)ccn2)cc(C(=O)NCCOCCOCCOC)c1` [Example 9, 3-((4-((4-(3-(3-(tert-Butyl)-1-methyl-1H-pyrazol-5-yl)ureido)naphthalen-1-yl)oxy)pyridin-2-yl)amino)-5-ethynyl-N-(2-(2-(2-methoxyethoxy)ethoxy)ethyl)benzamide], the IC50 against p38 MAPKα is 66 nM; on c-Src, 53 nM; against Syk, greater than 1000 nM; at GSK3α it was 12400 nM; with PBMCs [1], 3.8 nM; with PBMCs [2] it was 33.7 nM. Besides, the concentration for half-maximal inhibition (IC50) with HT29 cells came to 18 nM. Also, the “% β-catenin induction” value in the experiment on d-U937 cells (setting [3]) is −2.5%; in the experiment with d-U937 cells (setting [4]), −1%; in the experiment with d-U937 cells (setting [5]), 4.5%.
Regarding `C#Cc1cc(Nc2nccc(Oc3ccc(NC(=O)Nc4cc(C(C)C)nn4C)c4ccccc34)n2)cc(C(=O)NCCN2CCOCC2)c1` [Example 10, 3-Ethynyl-5-((4-((4-(3-(3-isopropyl-1-methyl-1H-pyrazol-5-yl)ureido)naphthalen-1-yl)oxy)pyrimidin-2-yl)amino)-N-(2-morpholinoethyl)benzamide], the IC50 was found to be 9 nM at p38 MAPKα; 8 nM against c-Src; 819 nM against Syk; 14100 nM against GSK3α; 15.6 nM in the experiment on PBMCs [1]; 270 nM with HT29 cells.
For the compound `C#Cc1cc(Nc2nccc(Oc3ccc(NC(=O)Nc4cc(C(C)C)nn4C)c4ccccc34)n2)cc(C(=O)NCCOCCOCCOC)c1` [Example 11, 3-Ethynyl-5-((4-((4-(3-(3-isopropyl-1-methyl-1H-pyrazol-5-yl)ureido)naphthalen-1-yl)oxy)pyrimidin-2-yl)amino)-N-(2-(2-(2-methoxyethoxy)ethoxy)ethyl)benzamide], the half-maximal inhibitory concentration (IC50) was 13 nM on p38 MAPKα; 9 nM against c-Src; greater than 1000 nM against Syk; 9520 nM against GSK3α; 26.1 nM in the experiment with PBMCs [1]; greater than 1000 nM with HT29 cells.
